Results on two compounds are retold here after ChEMBL document CHEMBL1949624, “Synthesis of a spin-labeled anti-estrogen as a dynamic motion probe for the estrogen receptor ligand binding domain” (Bioorg Med Chem Lett, 2012).

The target in assay [1] is T1, Estrogen receptor (Homo sapiens) (UniProt P03372).
T1 sequence (whole entry): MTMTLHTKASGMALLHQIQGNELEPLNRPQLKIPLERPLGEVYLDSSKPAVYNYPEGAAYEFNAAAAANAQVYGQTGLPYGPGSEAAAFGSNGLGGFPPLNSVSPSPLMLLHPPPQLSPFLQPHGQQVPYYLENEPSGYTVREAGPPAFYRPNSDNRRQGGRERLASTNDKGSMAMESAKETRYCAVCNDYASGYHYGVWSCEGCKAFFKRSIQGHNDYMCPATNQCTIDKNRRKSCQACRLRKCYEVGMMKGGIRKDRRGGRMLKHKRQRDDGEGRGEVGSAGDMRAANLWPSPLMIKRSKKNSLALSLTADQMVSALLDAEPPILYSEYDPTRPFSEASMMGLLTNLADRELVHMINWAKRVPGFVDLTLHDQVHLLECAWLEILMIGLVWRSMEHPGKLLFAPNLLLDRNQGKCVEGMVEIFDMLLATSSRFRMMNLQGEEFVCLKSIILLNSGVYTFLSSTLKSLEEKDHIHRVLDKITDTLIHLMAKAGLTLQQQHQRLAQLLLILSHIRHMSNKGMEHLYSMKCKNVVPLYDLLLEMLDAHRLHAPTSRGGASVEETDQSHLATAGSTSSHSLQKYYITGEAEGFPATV
Nature of the assay: Relative binding affinity to ERalpha LBD by competitive binding assay.

Assay [2] has as its target Estrogen receptor beta (Homo sapiens) (UniProt Q92731). Nature of the assay: Relative binding affinity to ERbeta LBD by competitive binding assay.
The nature of assay [3]: Selectivity ratio of relative binding affinity for ERbeta receptor LBD to relative binding affinity for ERalpha receptor LBD.

Estrogen receptor beta (Homo sapiens), sequence (Q92731 whole entry, the tested form may be a part): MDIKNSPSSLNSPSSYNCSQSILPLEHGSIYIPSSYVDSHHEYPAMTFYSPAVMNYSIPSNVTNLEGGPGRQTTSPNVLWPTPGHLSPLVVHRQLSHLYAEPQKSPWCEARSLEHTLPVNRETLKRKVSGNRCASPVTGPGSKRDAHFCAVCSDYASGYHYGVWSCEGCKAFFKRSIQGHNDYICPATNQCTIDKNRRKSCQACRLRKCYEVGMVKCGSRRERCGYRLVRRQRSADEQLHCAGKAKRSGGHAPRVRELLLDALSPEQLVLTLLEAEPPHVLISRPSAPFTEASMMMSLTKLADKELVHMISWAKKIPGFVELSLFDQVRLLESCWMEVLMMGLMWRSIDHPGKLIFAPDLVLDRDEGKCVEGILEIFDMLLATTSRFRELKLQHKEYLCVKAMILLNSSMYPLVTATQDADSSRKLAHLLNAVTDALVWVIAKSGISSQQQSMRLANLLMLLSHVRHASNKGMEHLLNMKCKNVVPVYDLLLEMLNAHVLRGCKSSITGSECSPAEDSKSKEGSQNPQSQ

Consider `CC1(C)CC(NCc2cn(CCOc3ccc([C@H]4C[C@]5(C)[C@@H](O)CC[C@H]5[C@@H]5CCc6cc(O)ccc6[C@H]54)cc3)nn2)CC(C)(C)N1[O]`, for which the figures for the RBA in assay [1] and in assay [2] were 4.5% and 1.9%, respectively. Further, the Selectivity ratio in assay [3] is 0.43.
On to `C[C@]12C[C@H](c3ccc(OCCN=[N+]=[N-])cc3)[C@@H]3c4ccc(O)cc4CC[C@H]3[C@@H]1CC[C@@H]2O`, for which the RBA in assay [2] is 33.7%. Moreover, the Selectivity ratio in assay [3] is 0.86.
